Legend:
An. gambiae larvae = test: larval behavioral (movement) bioassay, Ethovision; assay type: in vivo, Anopheles gambiae
Procedure: FIG. 9. VUAA1's larval activity threshold relative to DEET is 5 orders of magnitude lower and AgORco dependent. Larval activity in An. gambiae over 5 minutes monitored in 6-well culture plates using Ethovision (Noldus) software.
In order to address whether VUAA1 as a non-volatile could also evoke behavioral responses from An. gambiae, the inventors tested behavioral responses to VUAA1 on individual larval stage mosquitoes by adaptation of an olfactory based bioassay recently developed at Vanderbilt (described in Liu et al., 2010). These methods are non-invasive, and easily executed using a fully automated setup with an Ethovision® camera/software system (Noldus Information Technology to quantify the overall movement of mosquito larvae in response to uniform concentrations of chemicals. In these assays, increased overall movement can be interpreted as an aversive response (akin to agitation) that are consistent with those evoked by commercially available insect repellents such as DEET.

[1] = tested on: CpA neuron (CO2 sensitive, does not express AgORco); test: single sensillum recordings, capitate peg sensilla, CpA neuron; assay type: in vivo, Anopheles gambiae; conditions: CO2 pulse at completion of assay, adult females
Procedure: (§1) Single sensillum recordings were performed on 4-7 day old, non-bloodfed Anopheles gambiae females maintained on 10% sucrose and a 12/12 light dark cycle. Legs, wings and antennae were removed from cold-anesthetized females that were then restrained on double-stick tape with thread. A glass reference electrode filled with Sensillar lymph ringers (SLR)(Xu, 2005) was placed in the eye and the recording electrode filled with DMSO or VUAA1 diluted in SLR was used to puncture sensilla at their base. Responses were recorded and digitized using a Syntech IDAC-4 and analyzed with AutoSpike software (Syntech). New glass recording pipettes were used for every recording. Data was sampled at 12 kHz.
(§2) The inventors next performed single unit, extracellular electrophysiological recordings on adult female An. gambiae to determine whether VUAA1 could activate AgORco-expressing odorant receptor neurons (ORNs) in vivo. ORNs, which express AgORco and a conventional OR are enclosed within the hair-like sensilla present on olfactory tissues. […] CpA is clearly distinguished from CpB/C by its large action potential amplitude. The action potential amplitudes of CpB and CpC are much smaller and in some preparations indistinguishable from each other; as a result, the spike activity of CpB and CpC neurons were binned for data analysis. […]

HvOR2 = test: whole-cell patch clamp, HEK cells transiently transfected with HvOR2; assay type: cell-based, Heliothis virescens; conditions: HEK cells expressing HvOR2, −60 mV
From the text: For transient transfections, ORs were cloned into pCI (Promega) and transfected into Flp-In™ T-REx™293 cell lines (Invitrogen) with Fu GENE6 (Roche). For the creation of stable cell lines, a cell culture expression vector capable of expressing AgORco in conjunction with a conventional OR, pcDNA5/FRT/TO (Invitrogen) was modified to create two individual expression cassettes each under the control of a separate CMV/TetO2 promoter and a BGH poly-adenylation signal. Cells (as above) were transfected with the modified pcDNA5 plasmid along with POG44 (a Flp recombinase expression plasmid) to facilitate site-specific recombination. Stable cell lines were selected using Hygromycin B (Invitrogen). Cells were maintained in DMEM (Invitrogen) supplemented with 10% Tetracycline-free FBS (HyClone) and 15 μg/ml Blasticidin. […] Baseline readings were taken for 20 s before automated addition of compound previously diluted in DMSO and assay buffer. […]
Currents from OR-expressing HEK293 cells were amplified with an Axopatch 200b Amplifier (Axon Instruments) and digitized through a Digidata 1322A (Axon Instruments). Electrophysiological data was recorded and analyzed using pCLAMP 10 (Axon Instruments). […]

[2] = tested on: AgORco-expressing neurons (CpB/C); test: single sensillum recordings, capitate peg sensilla, CpB/C neurons; assay type: in vivo, Anopheles gambiae; conditions: delivered via glass recording electrode, adult females
Procedure: as §1, §2

CCc1ccc(NC(=O)CSc2nnc(-c3cccnc3)n2CC)cc1 [VUAA1]
larval behavioral responses (overall movement) (An. gambiae larvae; An. gambiae larvae, 5 minutes): robust responses
larval response after AgORco silencing (An. gambiae larvae; larvae treated with AgOrco siRNAs): no longer respond
larval response after mock or non-specific siRNA control injection (An. gambiae larvae; mock or non-specific siRNA control injection): retain their high sensitivity
threshold of larval responses lower than DEET (An. gambiae larvae; relative to DEET): 5 orders of magnitude
CpA activity [1]: unchanged
whole-cell currents (HvOR2): robust inward currents
spike frequency of CpB/C neurons [2]: increased the spike frequency of CpB/C neurons in a dose-dependent manner

Reference: patent US10091997B2, “Composition for inhibition of insect host sensing” (Vanderbilt University, priority 2010, dated 2018)
